For data set [1], the system named is HTT mRNA. Description: PK-PD compartment model and decay-rate modelling of HTT mRNA and protein lowering. Also noted: species or system human. The text has this: (§1) HTT mRNA reaches steady state after approximately 5 days. For HTT protein, the half-life was estimated to be 5-7 days and consequently HTT protein steady state levels would only be attained about 6 weeks from the beginning of treatment.
(§2) A target 30% to 50% decrease in mHTT is the range associated with decreased pathology and anticipated therapeutic benefit in patients. In the Phase 1 study, Compound 1-mediated HTT pre-mRNA splicing was dose dependent across all cohorts in both the SAD and MAD portions of the study. Mean decreases in full-length HTT mRNA levels of 40% and 60% were observed after 14 days of treatment with Compound 1 at 15 mg and 30 mg, respectively. On the basis of these clinical data, a PK-PD compartment model was used to simulate percentage of mRNA decreases (and thus the anticipated magnitude of HTT protein lowering) at additional potential clinical doses.

Test in data set [2]: as above
The settings on record: 30 mg daily dose, model based on half-life. Also noted: species or system human.
Text: as §1, §2

Data set [3] has as its system HTT mRNA. Description: Phase 1 study, HTT mRNA in whole blood of healthy volunteers. It counts as in vivo, human. The settings on record: for Mean decrease in full-length HTT mRNA levels: after 14 days of treatment (MAD). As to the method: The Phase 1 study was conducted in 5 parts: single ascending doses (SAD)(Part 1), multiple ascending doses (MAD)(Part 2), CSF and blood sampling after 7 days of Compound 1 administration (Part 3), food effect (Part 4), and multiple dosing for up to 28 days (Part 5). Part 1, Part 2, and Part 5 are double blind; Part 3 and Part 4 are open-label. Note that Part 3, Part 4, and Part 5 may be conducted concurrently.
The single ascending dose (SAD) part of the study was randomized, double-blinded, and placebo controlled in healthy male and female subjects.
(§3) The multiple ascending (MAD) part of the study was randomized, double-blind, and placebo controlled in healthy male and female subjects. Up to five regimens are planned to be tested in up to 5 cohorts of 8 subjects each (Cohort 2.1 to 2.5). Within each cohort, 6 subjects were to receive Compound 1 and 2 subjects were to receive placebo. Subjects in Cohort 2.1 and 2.2 were to be dosed for 14 days, subjects in Cohort 2.3 to 2.5 were to be dosed for up to 21 days.
The amount of HTT mRNA was then evaluated by RT-PCR 6 hours after administration of Compound 1 on day 14.

Data set [4] can be described thus: Rat toxicology, NOAEL. The settings on record: male, in vivo. On the procedure:
The initial dose in the first cohort was ≤ 1/10 of the human equivalent dose (HED) estimated from the NOAEL (no observed adverse effect level) of the (male) rat, which is the most sensitive species, following the FDA guidance on the maximum recommended starting dose (MRSD) and EMA guidelines. The NOAEL of the rat is 6 mg/kg. […] The HED of 0.97 mg/kg was calculated; this scaled in a 70 kg human to 68 mg. Adjusting this dose to 1/10, the dose of the first cohort was 6.8; the actual administered dose will be 5 mg.

For data set [5], the system named is HTT protein. Briefly: Phase 1 study, HTT protein in blood of healthy volunteers (MAD). The format is in vivo, human. The following applies: after 21 days of treatment (MAD).
Text: as §3
In untreated cells, there is a steady state level of mRNA and protein because the amount of mRNA or protein being synthesized matches the amount that is being degraded, so that the mRNA and protein levels are the same over time. The addition of Compound 1 triggers the inclusion of the HTT pseudoexon into the transcript which results in the rapid decay of the HTT mRNA and a reduction of HTT mRNA to […]. […] In this example, ˜50% of newly synthesized mRNA was inhibited. Of the HTT mRNA synthesized prior to treatment, about 50% is degraded after 24 hours. The HTT protein level depends on how much mRNA is produced. Thus, a reduction by 50% would cause a 50% reduction of the HTT protein. […] Changes in HTT protein levels were assessed in MAD cohort over a longer period of time. Accordingly, healthy subjects were treated for 21 days before the amount of HTT mRNA and protein was measured in blood samples taken from each subject. […]

The nature of data set [6]: Phase 1 study, pharmacokinetics in plasma and CSF, food effect. It counts as in vivo, human. The text has this:
The concentrations of Compound 1 in plasma and CSF were to be assessed in an open-label design in healthy male and female subjects. A single dose of Compound 1 was to be administered daily for 7 days in 1 cohort of 6 subjects (Cohort 3.1). The dose level of Part 3 was to be determined based upon a review of the safety, tolerability, and PK data of Part 1 and Part 2 of the study. While the MAD dose was to be determined further in development, that dose and schedule was to be applied to this part of the study.
Eligibility was to be assessed during a screening period of up to 28 days. Subjects were to check into the clinic 1 day before dosing (Day −1). On the morning of Day 1 to Day 7, Compound 1 was to be orally administered after an overnight fast of at least 10 hours each day. Serial sampling of CSF and sampling of plasma for drug concentrations was to be performed on Day 7. The exact timing of the CSF and blood samples was to be determined based on the results of Part 1 and Part 2. […]
The food effect (FE) part was a parallel, open-label part in healthy male and female subjects in up to 3 cohorts of 6 subjects each. […] The dose levels for this part were to be chosen based upon a review of available safety, tolerability and PK data as determined in Part 1 and Part 2.

Data set [7] in a line: Phase 1 study, safety and tolerability in healthy subjects. It counts as in vivo, human. On the procedure: The study was monitored by a Safety Review Committee (SRC). […] Safety and tolerability were assessed by the SRC between each cohort prior to ascending from one dose level to the next higher dose level in Part 1 (single ascending dose [SAD]) and Part 2 (multiple ascending dose [MAD]), and prior to initiating Part 3 (CSF), Part 4 (FE), and Part 5.
Change from baseline to each scheduled time point up to EOS for vital signs; Change from baseline to each scheduled time point up to EOS for ECG parameters; Change from baseline to each scheduled time point up to EOS for clinical laboratory tests; Changes from baseline in C-SSRS scores (Part 2, Part 3, and Part 5 only); Treatment-emergent adverse events (AEs) up to EOS; Treatment-emergent AEs leading to premature discontinuation of study drug; Treatment-emergent serious adverse events (SAEs) up to EOS; and, Abnormalities in physical examination.

The structures appear in SMILES notation. Entries after “also recorded” stand apart in the source; their conditions may differ. Read-outs that look alike come from different tables or passages of the source.

Take `CC1(C)CC(n2nnc3cc(-c4ccc(-n5nccn5)cc4O)nnc32)CC(C)(C)N1` [Compound 1, 2-[3-(2,2,6,6-tetramethylpiperidin-4-yl)-3H-[1,2,3]triazolo[4,5-c]pyridazin-6-yl]-5-(2H-1,2,3-triazol-2-yl)phenol]: in data set [1] (10 mg QD and 20 mg QD, PK-PD compartment model), the “predicted percent full-length HTT mRNA decrease from baseline” value is reported as 30 to 50%. The “predicted time for HTT mRNA to reach steady state” value in data set [1] (30 mg daily dose, model based on half-life) is recorded as “approximately 5 days”. Further, the “predicted time for HTT protein steady state levels” value in data set [2] is reported as “about 6 weeks”. For the same compound, the “Mean decrease in full-length HTT mRNA levels” value in data set [3] (15 mg) stood at 40%; in data set [3] (30 mg), 60%. The “maintenance of splicing following the last dose” value in data set [3] (MAD cohort) is “up to 72 hours”. The “HTT mRNA in whole blood” value is listed as “dose-dependent lowering of HTT mRNA” in data set [3] (MAD: 15 mg or 30 mg for 14 days, 6 hours after dose on day 14) and “dose-dependent lowering of HTT mRNA” in data set [3] (SAD: 5, 15, 45, 90 or 135 mg, 24 hours after dose). In addition, in data set [3] (Multiple Ascending Dose Study), the “time for HTT mRNA levels to reach steady state” value fell in the range of 4 to 5 days. Besides, in data set [3] (SAD cohort, 24 hours after dose, even with higher concentrations), the “total amount of HTT mRNA” value was “about 50 % of baseline”. For the same compound, the “persistence of HTT splicing effect post cessation of treatment” value in data set [3] (SAD cohorts) was 72 h. The “HTT mRNA lowering (target level achieved)” value in data set [3] (lowest dose tested, both SAD and MAD cohorts) is 30-50%. Besides, the NOAEL (commonly the highest tested level that showed no adverse finding) in data set [4] ((male) rat, germ cell exfoliation in epididymis and testes, read-out: NOAEL (no observed adverse effect level)) was 6 mg/kg; in data set [4] (from rat NOAEL, read-out: human equivalent dose (HED) estimated from the NOAEL), 0.97 mg/kg. Besides, the “lowering in the amount of HTT protein” value in data set [5] is recorded as “approximately 40%”. For the same compound, the drug half-life entry in data set [6] (MAD cohort) is on record as “long drug half-life”. For the same compound, in data set [6] (healthy subjects, 30 mg daily dose), the “Compound levels in the CSF compared with plasma” value is “equal to or greater than levels observed in plasma”. In addition, the dose-limiting toxicities entry in data set [7] (SAD and MAD portions) is “no events considered to be dose-limiting toxicities”. Moreover, in data set [7] (any dose, SAD and MAD portions), the “laboratory abnormalities and ECG findings” value is “no clinically significant laboratory abnormalities or electrocardiogram (ECG) findings”. Besides, in data set [7] (single doses 5 to 135 mg, multiple doses 15 and 30 mg up to 21 days), the safety and tolerability entry is “well-tolerated with no safety-related findings; also recorded: safe and generally well tolerated”.

Values taken from patent US20220162610A1, “NOVEL RNA TRANSCRIPT” (PTC Therapeutics, Inc., priority 2020, published 2022).
